Tests used:
[1] = system: mRNA expression in peripheral blood of individuals with DMD; test: Whole-blood gene expression microarray: DMD administered prednisone or deflazacort vs DMD not administered steroid; assay type: in vivo, human
Protocol: Fifteen ml of blood was collected from each individual into 6 PAXgene® Vacutainer® tubes (PreAnalytiX, Germany) by antecubital fossa venipuncture. PAXgene® tubes contain a proprietary reagent that immediately stabilizes RNA, thus reducing RNA degradation and minimizing gene expression changes following phlebotomy. The tubes were then inverted 20 times, then remained undisturbed for 2 h at room temperature (about 19° C. to about 22° C.), and then stored at -70° C. until processed. Total RNA was isolated using the Paxgene® blood RNA kit (PreAnalytiX, Germany) according to the manufacturers instructions. The RNA isolated is from all cells in whole blood. […] Sample labeling, hybridization to chips, and image scanning were performed using standard Affymetrix protocols. For each whole blood sample from control individuals and individuals with DMD, total RNA was labeled using the One-Cycle Target Labeling protocol and hybridized to the arrays. […] Double-stranded cDNA synthesis, biotin-labeled cRNA synthesis, and cRNA fragmentation were performed according to the Affymetrix GeneChip Eukaryotic Expression Analysis protocol. […] After hybridization, the array was washed and stained. […] After scanning the array, the raw probe level values for each probe were saved in Affymetrix.cel files. […] Statistical analyses, including t-test analyses, unsupervised hierarchical clustering, and principal component analyses were conducted using Genespring 7.2 software ([…]® 7, Silicon Genetics, Redwood City Calif.). […] Corrections for multiple comparisons used a Benjamini-Hochberg False Discovery Rate (FDR) of 0.05, disclosed in Tang et al., J Cereb Blood Flow Metab 26 (2006) 1089, which is expressly incorporated by reference herein in its entirety. […] Individuals with DMD were evaluated and had been diagnosed by a single board-certified pediatric neurologist. The diagnosis of DMD was based in part upon clinical history, examination findings, and selected muscle biopsies and was confirmed by molecular diagnostic testing. […] Sample processing and array hybridization, probe-level data analysis, and statistical analysis were identical to Example 1.

individuals with DMD = settings: cited from earlier work
[2] = DMD administered deflazacort or prednisone vs not administered

CC(=O)OCC(=O)[C@@]12N=C(C)O[C@@H]1C[C@H]1[C@@H]3CCC4=CC(=O)C=C[C@]4(C)[C@H]3[C@@H](O)C[C@@]12C [deflazacort]
expression levels of FKBP5 [1, 2]: up-regulated
expression levels of genes in the chondroitin sulfate biosynthesis pathway [1, 2]: up-regulated
expression levels of haptoglobin and CD163 nucleic acids [1, 2]: up-regulated
expression levels of lactotransferrin and lipocalin [1, 2]: increased expression levels
expression of KFL10 ([1]; individuals administered prednisone, deflazacort, or both vs DMD not administered any agent): up-regulated
side effects / weight gain (individuals with DMD; DMD individuals receiving deflazacort, relative to prednisone): fewer side effects, in particular, less weight gain
muscle function and strength (individuals with DMD; individuals with DMD): improved muscle function and strength
